In assay [1] the test system is Staphylococcus aureus. In words: Antibacterial activity against methicillin-resistant Staphylococcus aureus. Format: functional.
Assay [2] relates to Clostridioides difficile. As to the kind of experiment: […] activity against Clostridium difficile. In kind it is functional.

As a reminder, the MIC is the least concentration at which growth counts as inhibited. Low values mean a more susceptible organism, high ones a less susceptible organism.

Values after ≈ are worked out from the molar mass of the structure shown.

`COc1cccc(C(=O)Nc2cc(C(=O)Nc3cc(C(=O)Nc4cc(C(=O)NCCCN(C)C)n(C)c4)n(CCC(C)C)c3)n(C)c2)c1` showed an MIC in assay [1] of 2 µM (≈ 1.32 µg/mL).
In turn, `CC1(C)S[C@@H]2[C@H](NC(=O)[C@H](N)c3ccc(O)cc3)C(=O)N2[C@H]1C(=O)O` [AMOXICILLIN] yielded an MIC in assay [1] of 16.1 µM (≈ 5.88 µg/mL). This MIC lies about 8.1-fold higher than the previous one.
As for `Cn1cc(NC(=O)c2cc(NC(=O)c3ccc(/C=C/c4cnc5ccccc5c4)cc3)cn2C)cc1C(=O)NCCN1CCOCC1` [MGB-BP-3], the minimum inhibitory concentration (MIC) in assay [2] was 1 µg/mL (≈ 1.58 µM).
The compound `CN[C@H](CC(C)C)C(=O)N[C@H]1C(=O)N[C@@H](CC(N)=O)C(=O)N[C@H]2C(=O)N[C@H]3C(=O)N[C@H](C(=O)N[C@H](C(=O)O)c4cc(O)cc(O)c4-c4cc3ccc4O)[C@H](O)c3ccc(c(Cl)c3)Oc3cc2cc(c3O[C@@H]2O[C@H](CO)[C@@H](O)[C@H](O)[C@H]2O[C@H]2C[C@](C)(N)[C@H](O)[C@H](C)O2)Oc2ccc(cc2Cl)[C@H]1O` [VANCOMYCIN] displayed an MIC in assay [2] of 1 µg/mL (≈ 0.69 µM).

These data come from ChEMBL document CHEMBL4371010, “Thermodynamics of DNA Minor Groove Binders” (2019).
